Where only a bound is given, the exact number is not on record here.

The first experiment deals with T1, human Edg-1(S1P1) (Homo sapiens, UniProt P21453).
T1 construct: expressed in transfected cells; host or cells: HEK-293
T1 sequence (P21453 whole entry): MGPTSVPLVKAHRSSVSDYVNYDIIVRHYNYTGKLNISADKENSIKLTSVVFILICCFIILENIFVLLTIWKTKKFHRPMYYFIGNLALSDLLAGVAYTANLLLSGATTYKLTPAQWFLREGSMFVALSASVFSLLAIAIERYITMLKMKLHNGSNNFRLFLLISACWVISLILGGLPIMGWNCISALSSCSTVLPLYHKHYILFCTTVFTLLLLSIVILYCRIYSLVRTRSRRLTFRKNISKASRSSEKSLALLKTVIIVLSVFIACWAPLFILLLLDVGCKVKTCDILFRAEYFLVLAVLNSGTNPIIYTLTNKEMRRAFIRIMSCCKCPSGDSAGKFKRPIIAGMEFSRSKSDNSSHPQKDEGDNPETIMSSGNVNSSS
Briefly: S1P1 Binding Test ([33P]-S1P, membrane fraction of HEK-293 cell line carrying the human Edg-1(S1P1) gene). Conditions: compound at 10 μM; [33P]-S1P 0.1 nM; 30° C., 1 hour; read-out: inhibition rate of Edg-1(S1P1) binding. Here is the method:
The membrane fraction of a HEK-293 cell line carrying the human Edg-1(S1P1) gene was used to study the compounds of the present invention for their inhibitory effect on Edg-1(S1P1) binding, as described in Science. […] To obtain the membrane fraction, treatment with solubilizing buffer (1 mM Tris/HCl, pH 7.2) for 10 minutes on ice was performed, followed by centrifugation at 1000×g for 5 minutes to remove an insoluble fraction and then at 40000×g for 30 minutes at 4° C. The resulting membrane fraction was dissolved in binding buffer (20 mM Tris-HCl, pH 7.4, 100 mM NaCl, 15 mM NaF, 2 mM deoxypyridoxine, 4 mg/mL fatty acid-free BSA), followed by addition of binding buffer containing [^33P]-S1P (ARC, final concentration: 0.1 nM) and DMSO solution of a test compound (final concentration of the compound: 10^−5 M, final concentration of DMSO: 0.1%). After stirring, the reaction solution was incubated at 30° C. for 1 hour. The membrane fraction was collected onto a unifilter-96 GF/C filter (Perkin Elmer) using a harvester and washed four times with binding buffer, followed by drying the filter. After addition of 25 μL Microscint 0 (Perkin Elmer), radioactivity was measured with a Top Count NXT (Packard) to calculate amount (A), i.e., the amount of [^33P]-S1P binding to the membrane fraction in the presence of the compound.
The same procedure was performed in the absence of any test compound to calculate amount (B), i.e., the amount of [^33P]-S1P binding. Moreover, the same procedure was also performed with HEK-293 cells carrying no Edg-1(S1P1) gene in the absence of any test compound to calculate amount (C), i.e., the amount of background [^33P]-S1P binding.
The inhibition rate of Edg-1(S1P1) binding was calculated for each compound by the following equation. Inhibition rate (%)=[1−(A−C)/(B−C)]×100
Moreover, the activity of each test compound was calculated as a value (IC50 value) showing 50% of the radioactivity obtained in the absence of any test compound. Namely, the above membrane system binding test was performed in the presence of a test compound at various concentrations to calculate an IC50 value according to the dose-dependent inhibition curve analyzed with data analysis software, Origin (Lightstone Corp., Japan).
Regarding `CCc1c(C(C)NS(=O)(=O)c2ccc(Cl)c(Cl)c2)ccnc1Oc1cccc(N(C)C)c1` (centres unmarked) [Compound 22], the inhibition at 10 µM is at least 3%.

With `CCc1c(C(C)NS(=O)(=O)c2ccc(Cl)c(Cl)c2)ccnc1OC` (centres unmarked) [Compound 23], the inhibition at 10 µM is at least 3%.

As for `CCc1c(C(C)NS(=O)(=O)c2ccc(Cl)c(Cl)c2)ccnc1OCC(F)(F)F` (centres unmarked) [Compound 24], the inhibition at 10 µM is at least 3%.

Consider `CCc1c(C(C)NS(=O)(=O)c2ccc(Cl)c(Cl)c2)ccnc1OCc1ccccc1` (centres unmarked) [Compound 25], for which the inhibition at 10 µM is at least 3%.

Turning to `CCc1c(C(C)NS(=O)(=O)c2ccc(Cl)c(Cl)c2)ccnc1OC(C)C` (centres unmarked) [Compound 26, 3,4-Dichloro-N-[1-(2-isopropoxy-3-ethyl-pyridin-4-yl)-ethyl]-benzenesulfonamide], the inhibition at 10 µM is at least 3%.

As for `CCc1c(C(C)NS(=O)(=O)c2ccc3c(Cl)cccc3c2)ccnc1Oc1cccc(N2CCOCC2)c1` (centres unmarked) [Compound 27, 5-Chloronaphthalene-2-sulfonic acid {1-[3-ethyl-2-(3-morpholin-4-yl-phenoxy)-pyridin-4-yl]-ethyl}-amide], the inhibition at 10 µM was at least 3%.

Consider `CCc1c([C@@H](C)NS(=O)(=O)c2ccc(Cl)c(Cl)c2)ccnc1Oc1cccc(N2CCN(C)CC2)c1` [Compound 28, (R)-3,4-Dichloro-N-(1-{3-ethyl-2-[3-(4-methyl-piperazin-1-yl)-phenoxy]-pyridin-4-yl}-ethyl)-benzenesulfonamide], for which the inhibition at 10 µM is at least 3%.

On to `CCc1c([C@H](C)NS(=O)(=O)c2ccc(Cl)c(Cl)c2)ccnc1Oc1cccc(N2CCN(C)CC2)c1` [Compound 29, (S)-3,4-Dichloro-N-(1-{3-ethyl-2-[3-(4-methyl-piperazin-1-yl)-phenoxy]-pyridin-4-yl}-ethyl)-benzenesulfonamide], for which the inhibition at 10 µM was at least 3%.

As to `CCc1c(C(C)NS(=O)(=O)c2ccc(Cl)c(Cl)c2)ccnc1OC1CCC1` (centres unmarked) [Compound 30], the inhibition at 10 µM is at least 3%.

For the compound `CCc1c(C(C)NS(=O)(=O)c2ccc3c(Cl)cccc3c2)ccnc1Oc1cccc(N2CCN(C)CC2)c1` (centres unmarked) [Compound 31], the inhibition at 10 µM is at least 3%.

As to `CCc1c(C(C)NS(=O)(=O)c2ccccc2)ccnc1Oc1cccc(N2CCOCC2)c1` (centres unmarked) [Compound 32], the inhibition at 10 µM is at least 3%.

For the compound `CCc1c(C(C)NS(=O)(=O)c2ccccc2C)ccnc1Oc1cccc(N2CCOCC2)c1` (centres unmarked) [Compound 33], the inhibition at 10 µM is at least 3%.

With `CCc1c(C(C)NS(=O)(=O)c2cccc(C)c2)ccnc1Oc1cccc(N2CCOCC2)c1` (centres unmarked) [Compound 34], the inhibition at 10 µM was at least 3%.

Consider `CCc1ccc(S(=O)(=O)NC(C)c2ccnc(Oc3cccc(N4CCOCC4)c3)c2CC)cc1` (centres unmarked) [Compound 35], for which the inhibition at 10 µM was at least 3%.

On to `CCc1c(C(C)NS(=O)(=O)c2ccc(OC)cc2)ccnc1Oc1cccc(N2CCOCC2)c1` (centres unmarked) [Compound 36], for which the inhibition at 10 µM is at least 3%.

As to `CCc1c(C(C)NS(=O)(=O)c2ccc(C(F)(F)F)cc2)ccnc1Oc1cccc(N2CCOCC2)c1` (centres unmarked) [Compound 37], the inhibition at 10 µM was at least 3%.

For the compound `CCc1c(C(C)NS(=O)(=O)c2ccc(OC(F)(F)F)cc2)ccnc1Oc1cccc(N2CCOCC2)c1` (centres unmarked) [Compound 38], the inhibition at 10 µM is at least 3%.

As to `CCc1c(C(C)NS(=O)(=O)c2ccc([N+](=O)[O-])cc2)ccnc1Oc1cccc(N2CCOCC2)c1` (centres unmarked) [Compound 39], the inhibition at 10 µM was at least 3%.

As for `CCc1c(C(C)NS(=O)(=O)c2ccc(C#N)cc2)ccnc1Oc1cccc(N2CCOCC2)c1` (centres unmarked) [Compound 40], the inhibition at 10 µM was at least 3%.

`CCc1c(C(C)NS(=O)(=O)c2ccc(Cl)cc2)ccnc1Oc1cccc(N2CCOCC2)c1` (centres unmarked) [Compound 41]: the inhibition at 10 µM is at least 3%.

As to `CCc1c(C(C)NS(=O)(=O)c2cccc(Br)c2)ccnc1Oc1cccc(N2CCOCC2)c1` (centres unmarked) [Compound 42], the inhibition at 10 µM was at least 3%.

Regarding `CCc1c(C(C)NS(=O)(=O)c2ccccc2F)ccnc1Oc1cccc(N2CCOCC2)c1` (centres unmarked) [Compound 43], the inhibition at 10 µM is at least 3%.

On to `CCc1c(C(C)NS(=O)(=O)c2ccc(C(C)=O)cc2)ccnc1Oc1cccc(N2CCOCC2)c1` (centres unmarked) [Compound 44], for which the inhibition at 10 µM is at least 3%.

Consider `CCc1c(C(C)NS(=O)(=O)c2ccc(F)c(Cl)c2)ccnc1Oc1cccc(N2CCOCC2)c1` (centres unmarked) [Compound 45], for which the inhibition at 10 µM was at least 3%.

Turning to `CCc1c(C(C)NS(=O)(=O)c2ccc(C)c(Cl)c2)ccnc1Oc1cccc(N2CCOCC2)c1` (centres unmarked) [Compound 46], the inhibition at 10 µM is at least 3%.

For the compound `CCc1c(C(C)NS(=O)(=O)c2ccc(Br)s2)ccnc1Oc1cccc(N2CCOCC2)c1` (centres unmarked) [Compound 47], the inhibition at 10 µM was at least 3%.

On to `CCc1c(C(C)NS(=O)(=O)c2ccc(Cl)c(Cl)c2Cl)ccnc1Oc1cccc(N2CCOCC2)c1` (centres unmarked) [Compound 48], for which the inhibition at 10 µM was at least 3%.

Take `CCc1c(C(C)NS(=O)(=O)c2cccnc2)ccnc1Oc1cccc(N2CCOCC2)c1` (centres unmarked) [Compound 49]: the inhibition at 10 µM is at least 3%.

Turning to `CCc1c(C(C)NS(=O)(=O)c2ccc3ncccc3c2)ccnc1Oc1cccc(N2CCOCC2)c1` (centres unmarked) [Compound 50], the inhibition at 10 µM was at least 3%.

As to `CCc1c(C(C)NS(=O)(=O)c2cc3ccccc3s2)ccnc1Oc1cccc(N2CCOCC2)c1` (centres unmarked) [Compound 51], the inhibition at 10 µM is at least 3%.

As for `CCc1c(C(C)NS(=O)(=O)c2ccc3c(c2)OCO3)ccnc1Oc1cccc(N2CCOCC2)c1` (centres unmarked) [Compound 52], the inhibition at 10 µM is at least 3%.

With `CCc1c(C(C)NS(=O)(=O)/C=C/c2ccccc2)ccnc1Oc1cccc(N2CCOCC2)c1` (centres unmarked) [Compound 53], the inhibition at 10 µM was at least 3%.

In the case of `CCc1c(C(C)NS(=O)(=O)c2ccc3c(c2)CCO3)ccnc1Oc1cccc(N2CCOCC2)c1` (centres unmarked) [Compound 54], the inhibition at 10 µM is at least 3%.

With `CCc1c(C(C)NS(=O)(=O)c2ccc3c(c2)N=S=N3)ccnc1Oc1cccc(N2CCOCC2)c1` (centres unmarked) [Compound 55], the inhibition at 10 µM was at least 3%.

Take `CCc1c(C(C)NS(=O)(=O)c2ccc(Cl)cc2Cl)ccnc1Oc1cccc(N2CCOCC2)c1` (centres unmarked) [Compound 56]: the inhibition at 10 µM is at least 3%.

In the case of `CCc1c(C(C)NS(=O)(=O)c2ccc3c(Cl)ccc(Cl)c3c2)ccnc1Oc1cccc(N2CCOCC2)c1` (centres unmarked) [Compound 57], the inhibition at 10 µM was at least 3%.

Take `CCc1c(C(C)NS(=O)(=O)c2ccc3c(Cl)cccc3c2)ccnc1Sc1ccc(C)cc1` (centres unmarked) [Compound 58, 5-Chloronaphthalene-2-sulfonic acid [1-(3-ethyl-2-p-toluylsulfanyl-pyridin-4-yl)-ethyl]-amide]: the inhibition at 10 µM was at least 3%.

Turning to `CCc1c(C(C)NS(=O)(=O)c2ccc3c(Cl)cccc3c2)ccnc1S(=O)(=O)c1ccc(C)cc1` (centres unmarked) [Compound 59, 5-Chloronaphthalene-2-sulfonic acid {1-[3-ethyl-2-(toluene-4-sulfonyl)-pyridin-4-yl]-ethyl}-amide], the inhibition at 10 µM was at least 3%.

As to `CCc1c(C(C)N(C)S(=O)(=O)c2ccc3c(Cl)cccc3c2)ccnc1Oc1cccc(N2CCOCC2)c1` (centres unmarked) [Compound 60, 5-Chloronaphthalene-2-sulfonic acid {1-[3-ethyl-2-(3-morpholin-4-yl-phenoxy)-pyridin-4-yl]-ethyl}-methyl-amide], the inhibition at 10 µM is at least 3%.

Take `CCc1c(C(C)NS(=O)(=O)c2ccc3c(Cl)cccc3c2)ccnc1Sc1cccc(N2CCN(C)CC2)c1` (centres unmarked) [Compound 62]: the inhibition at 10 µM is at least 3%.

The same experiment, now with this note: membrane binding test at various concentrations; [33P]-S1P 0.1 nM; read-out: IC50 value, Edg-1(S1P1) binding inhibition.
For `CCc1c(C(C)NS(=O)(=O)c2ccc(Cl)c(Cl)c2)ccnc1Oc1cccc(N(C)C)c1` (centres unmarked) [Compound 22], the IC50 is at most 200 nM.

Turning to `CCc1c(C(C)NS(=O)(=O)c2ccc3c(Cl)cccc3c2)ccnc1Oc1cccc(N2CCOCC2)c1` (centres unmarked) [Compound 27, 5-Chloronaphthalene-2-sulfonic acid {1-[3-ethyl-2-(3-morpholin-4-yl-phenoxy)-pyridin-4-yl]-ethyl}-amide], the IC50 is 51 nM.

As for `CCc1c([C@@H](C)NS(=O)(=O)c2ccc(Cl)c(Cl)c2)ccnc1Oc1cccc(N2CCN(C)CC2)c1` [Compound 28, (R)-3,4-Dichloro-N-(1-{3-ethyl-2-[3-(4-methyl-piperazin-1-yl)-phenoxy]-pyridin-4-yl}-ethyl)-benzenesulfonamide], the IC50 worked out at 49 nM.

For the compound `CCc1c(C(C)NS(=O)(=O)c2ccc3c(Cl)cccc3c2)ccnc1Oc1cccc(N2CCN(C)CC2)c1` (centres unmarked) [Compound 31], the IC50 turned out to be 35 nM.

Take `CCc1c(C(C)NS(=O)(=O)c2ccc(Cl)c(Cl)c2Cl)ccnc1Oc1cccc(N2CCOCC2)c1` (centres unmarked) [Compound 48]: the IC50 stood at 63 nM.

Regarding `CCc1c(C(C)NS(=O)(=O)c2ccc3c(c2)N=S=N3)ccnc1Oc1cccc(N2CCOCC2)c1` (centres unmarked) [Compound 55], the IC50 came out at 126 nM.

`CCc1c(C(C)NS(=O)(=O)c2ccc3c(Cl)ccc(Cl)c3c2)ccnc1Oc1cccc(N2CCOCC2)c1` (centres unmarked) [Compound 57]: the IC50 was at most 200 nM.

The inhibition is the drop in the measured response relative to a control, in per cent. The IC50 is the concentration at which inhibition is half-maximal.

The values are drawn from patent US8048898B2, “Inhibitor of binding of S1P1” (Taisho Pharmaceutical Co., Ltd, priority 2007, dated 2011).
